Laboratory results published in patent US6479487B1, “6, 9-disubstituted 2-[trans-(4-aminocyclohexyl)amino] purines” (Aventis Pharmaceuticals Inc., priority 1998, dated 2002).
“And” between values parts separate entries of the source, which are not always exact repeats. Equal values may be shown once. Where a name gives a salt, the structure may show the parent alone. Read-outs that look alike come from different tables or passages of the source.

Experiments:
[1] = tested on: HT-29; experiment: In vitro tumor cell proliferation, HT-29; assay type: cell-based, human; settings: many values given with an undefined *, read-out: In vitro Tumor Cell Proliferation (IC50, μM) Colon HT-29
Outline: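 Growth was quantified either with CyQUANT, plates frozen at −80° C after 3 days of drug, or by sulforhodamine B staining of TCA-fixed cells after 3 days of drug plus 4 days with fresh drug. Trypan blue-excluding HT-29 cells were plated overnight at 37° C before dosing.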

[2] = tested on: PC-3; experiment: In vitro tumor cell proliferation, PC-3; assay type: cell-based, human; settings: many values given with an undefined *, read-out: In vitro Tumor Cell Proliferation (IC50, μM) Prostate PC-3
Outline: (§1)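 Cells seeded overnight at 37° C, then exposed to drug diluted in medium; at 3 days medium and drug replenished for another 4 days. Growth read by sulforhodamine B staining after TCA fixation; alternatively by CyQUANT, with plates frozen at −80° C after 3 days of drug.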

[3] = tested on: A549; experiment: In vitro tumor cell proliferation, A549; assay type: cell-based, human; settings: many values given with an undefined *, read-out: In vitro Tumor Cell Proliferation (IC50, μM) Lung A549
Outline: as §1

[4] = tested on: Colo-205; experiment: In vitro tumor cell proliferation, Colo-205; assay type: cell-based; settings: values given with an undefined *, read-out: In vitro Tumor Cell Proliferation (IC50, μM) Colon Colo-205
Outline: as §1

[5] = tested on: DU145; experiment: In vitro tumor cell proliferation, DU145; assay type: cell-based, human; settings: many values given with an undefined *, read-out: In vitro Tumor Cell Proliferation (IC50, μM) Prostate DU145
Outline: as §1

[6] = tested on: DMS-114; experiment: In vitro tumor cell proliferation, DMS-114; assay type: cell-based, human; settings: many values given with an undefined *, read-out: In vitro Tumor Cell Proliferation (IC50, μM) Lung DMS-114
Outline: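 Human small cell lung carcinoma DMS-114 cells plated overnight, then drug-treated for 3 days, medium and drug renewed, and incubated 4 more days. Growth read by sulforhodamine B staining after TCA fixation; alternatively by CyQUANT after 3 days' drug exposure and freezing at −80 °C.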

[7] = tested on: MDA-MB-435; experiment: In vitro tumor cell proliferation, MDA-MB-435; assay type: cell-based; settings: values given with an undefined *, read-out: In vitro Tumor Cell Proliferation (IC50, μM) Breast MDA-MB-435
Outline: as §1

[8] = biological target: T1, cdk4/cyclin D1 (Homo sapiens, UniProt P11802); experiment: Cyclin-dependent Kinase 4 Assay (cdk4/cyclin D1, GST-Rb substrate); assay type: biochemical; settings: cdk4/cyclin D1 insect cell lysate, 10 μM ATP, 30 min at 37° C., several values = separate determinations, read-out: CDK4 Inhibition IC50
T1 construct: made in house; host or cells: Sf9 insect cells (Bac-to-Bac baculovirus, pFastBac)
Outline: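 IC50 against cdk4 measured by scintillation counting of bead-bound GST-Rb (0.5 μg) after filtration and four TNEN washes. Reaction was 30 min at 37 °C in HEPES pH 7.5 buffer with 10 mM MgCl2 and 1 mM EGTA. Enzyme source was 0.1 μg Sf9 lysate coinfected with cdk4 and cyclin D1.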

[9] = biological target: T2, cdk2/cyclin E (Homo sapiens, UniProt P24941); experiment: Cyclin-Dependent Kinase 2 Assay (cdk2/cyclin E, GST-Rb substrate); assay type: biochemical; settings: recombinant cdk2/cyclin E, 10 μM ATP, 30 min at 30° C., several values in a cell = separate determinations, read-out: CDK-2 Inhibition IC50
T2 construct: made in house; host or cells: insect cells (baculovirus co-infection)
Description: Substrate: GST-Rb as described above for cdk4/cyclin D1
Assay conditions for cdk2/cyclin E were identical to those for cdk4/cyclin D1 including the substrate. The concentration of recombinant cdk2/cyclin E in the assay was 0.1 μg per 100 μl assay. Incubation was for 30 min at 30° C.

[10] = tested on: MDA-MB-231; experiment: In vitro tumor cell proliferation, MDA-MB-231; assay type: cell-based, human; settings: sulforhodamine B or CyQUANT assay, many values given with an undefined *, read-out: In vitro Tumor Cell Proliferation (IC50, μM) Breast MDA-MB-231
Outline: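 Proliferation quantified by SRB staining of TCA-fixed cells after 3 days of drug plus 4 days with replenished drug, following overnight attachment at 37 °C.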

[11] = Homo sapiens, COLO 205, Colo-205
[12] = Homo sapiens, MDA-MB-435, MDA-MB-435
[13] = Homo sapiens, MDA-MB-231, MDA-MB-231

T1 sequence (P11802 whole entry): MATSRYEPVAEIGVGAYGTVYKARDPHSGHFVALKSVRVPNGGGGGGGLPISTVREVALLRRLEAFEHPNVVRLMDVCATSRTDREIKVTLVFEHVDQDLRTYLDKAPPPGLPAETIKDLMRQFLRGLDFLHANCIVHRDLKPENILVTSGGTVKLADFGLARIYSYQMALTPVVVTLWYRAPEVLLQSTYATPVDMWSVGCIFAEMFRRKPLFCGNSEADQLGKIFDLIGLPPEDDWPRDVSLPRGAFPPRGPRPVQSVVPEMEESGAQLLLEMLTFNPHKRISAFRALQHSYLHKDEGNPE
T1 sequence (P24385 whole entry partner): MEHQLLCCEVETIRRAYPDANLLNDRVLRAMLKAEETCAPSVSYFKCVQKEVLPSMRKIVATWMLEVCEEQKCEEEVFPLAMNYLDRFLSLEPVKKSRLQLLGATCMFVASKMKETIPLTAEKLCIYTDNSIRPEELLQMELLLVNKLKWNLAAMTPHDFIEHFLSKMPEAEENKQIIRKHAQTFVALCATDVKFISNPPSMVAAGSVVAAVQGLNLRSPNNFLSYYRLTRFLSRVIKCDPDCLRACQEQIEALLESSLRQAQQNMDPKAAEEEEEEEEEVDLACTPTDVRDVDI

| Compound | IC50 [8] | IC50 [9] | IC50 ([1]; HT-29, dihydrochloride) | IC50 ([1]; Homo sapiens, HT-29, HT-29) | IC50 ([2]; Homo sapiens, PC-3, PC-3) | IC50 ([2]; PC-3, dihydrochloride) | IC50 ([3]; A549, dihydrochloride) | IC50 ([3]; Homo sapiens, A549, A549) | IC50 ([4]; Colo-205, dihydrochloride) | IC50 [4, 11] | IC50 ([5]; DU145, dihydrochloride) | IC50 ([5]; Homo sapiens, DU-145, DU145) | IC50 ([6]; Homo sapiens, DMS-114, DMS-114) | IC50 [7, 12] | IC50 ([7]; MDA-MB-435, dihydrochloride) | IC50 [10, 13] | IC50 ([10]; MDA-MB-231, dihydrochloride) | IC50 ([6]; DMS-114, dihydrochloride) | other results |
| --- | --- | --- | --- | --- | --- | --- | --- | --- | --- | --- | --- | --- | --- | --- | --- | --- | --- | --- | --- |
| 2-[Trans-(4-aminocyclohexyl)amino]-6-[4-(1-(4-methylbenzyl))piperidinylamino]-9-cyclopentylpurine [Example 40] | 1 µM and 2 µM | 0.23 µM and 0.17 µM | – | – | – | – | – | – | – | – | – | – | – | – | – | – | – | – | IC50 ([1]; HT-29): 0.29 µM and 0.27 µM; IC50 ([2]; PC-3): 0.34 µM; IC50 ([3]; A549): 0.18 µM; IC50 ([4]; Colo-205): 0.16 µM and 0.18 µM; IC50 ([5]; DU145): 0.24 µM; IC50 ([6]; DMS-114): 0.26 µM; IC50 ([7]; MDA-MB-435): 0.27 µM; IC50 ([10]; MDA-MB-231): 0.19 µM and 0.28 µM |
| N[C@H]1CC[C@H](Nc2nc(Nc3ccc(OC(F)(F)F)cc3)c3ncn(C4CCCC4)c3n2)CC1 [Example 5, 2-[Trans-(4-aminocyclohexyl)amino]-6-[(4-trifluoromethoxy)phenylamino]-9-cyclopentylpurine dihydrochloride] | 0.4 µM and 0.7 µM | 0.23 µM | 1.1 µM | 1 µM | 1.1 µM | 0.7 µM | 0.53 µM | 0.35 µM | 1.2 µM | 1 µM | 0.7 µM | 0.56 µM | 0.47 µM | 1.3 µM | 1.5 µM | 0.78 µM | 0.87 µM | – | – |
| N[C@H]1CC[C@H](Nc2nc(NNc3ccccc3F)c3ncn(C4CCCC4)c3n2)CC1 [Example 11, 2-[Trans-(4-aminocyclohexyl)amino]-6-[2-fluorophenylhydrazino]-9-cyclopentylpurine dihydrochloride] | 8.9 µM and 5.8 µM | 0.1 µM | 7.8 µM | 6.5 µM | 3.6 µM | – | 3.4 µM | 4.5 µM | 5.2 µM | 6.5 µM | 4.7 µM | 4.6 µM | 6.8 µM | – | 10 µM | 5 µM | 6.7 µM | 4.9 µM | – |
| N[C@H]1CC[C@H](Nc2nc(NNc3ccc(Cl)cc3Cl)c3ncn(C4CCCC4)c3n2)CC1 [Example 147, 2-[Trans-(4-aminocyclohexyl)amino]-6-(2,4-dichlorophenylhydrazino)-9-cyclopentylpurine dihydrochloride] | 5.7 µM and 6.1 µM | 0.268 µM | 2 µM | 2.8 µM | 3.2 µM | 2.3 µM | 2.6 µM | 2.7 µM | 3.5 µM | 5.7 µM | 5.7 µM | 3.1 µM | – | 5.6 µM | 6 µM | 5.1 µM | 3.2 µM | – | – |

Continued, in another order:

| IC50 [8] | IC50 [9] | IC50 ([1]; HT-29, dihydrochloride) | IC50 ([1]; Homo sapiens, HT-29, HT-29) | IC50 ([2]; Homo sapiens, PC-3, PC-3) | IC50 ([2]; PC-3, dihydrochloride) | IC50 ([3]; A549, dihydrochloride) | IC50 ([3]; Homo sapiens, A549, A549) | IC50 ([4]; Colo-205, dihydrochloride) | IC50 [4, 11] | IC50 ([5]; DU145, dihydrochloride) | IC50 ([5]; Homo sapiens, DU-145, DU145) | IC50 ([6]; Homo sapiens, DMS-114, DMS-114) | IC50 [7, 12] | IC50 ([7]; MDA-MB-435, dihydrochloride) | IC50 [10, 13] | IC50 ([10]; MDA-MB-231, dihydrochloride) | IC50 ([6]; DMS-114, dihydrochloride) | Compound | other results |
| --- | --- | --- | --- | --- | --- | --- | --- | --- | --- | --- | --- | --- | --- | --- | --- | --- | --- | --- | --- |
| 0.3 µM and 0.7 µM | 0.69 µM | – | – | 6.4 µM | – | – | 7.2 µM | – | 5.4 µM | – | 7.8 µM | 6.3 µM | – | – | 6.2 µM | – | – | CCN(CC)CCNc1nc(N[C@H]2CC[C@H](N)CC2)nc2c1ncn2C1CCCC1 [Example 6, 2-[Trans-(4-aminocyclohexyl)amino]-6-[2-(diethylamino)ethylamino]-9-cyclopentylpurine trihydrochloride] | IC50 ([1]; HT-29, trihydrochloride): 7.7 µM; IC50 ([2]; PC-3, trihydrochloride): 8.2 µM; IC50 ([4]; Colo-205, trihydrochloride): 4.7 µM; IC50 ([5]; DU145, trihydrochloride): 7.9 µM; IC50 ([6]; DMS-114, trihydrochloride): 9.6 µM; IC50 ([7]; MDA-MB-435, trihydrochloride): 11 µM; IC50 ([10]; MDA-MB-231, trihydrochloride): 6.4 µM |
| 1.4 µM | 0.16 µM | 4.8 µM | 4.6 µM | 4.2 µM | 4.8 µM | – | 3.4 µM | 3.5 µM | 3.4 µM | 5.2 µM | 5.5 µM | 2.8 µM | 11 µM | 10 µM | 4.4 µM | 4.9 µM | 3.3 µM | N[C@H]1CC[C@H](Nc2nc(NCc3cccc4ccccc34)c3ncn(C4CCCC4)c3n2)CC1 [Example 7, 2-[Trans-(4-aminocyclohexyl)amino]-6-[(1-napthyl)methylamino]-9-cyclopentylpurine dihydrochloride] | – |
| 3.9 µM and 2 µM | 0.165 µM | 0.96 µM | 0.87 µM | 0.41 µM | 0.28 µM | 2 µM | 1.2 µM | 0.94 µM | 0.76 µM | 4 µM | 3.5 µM | 1 µM | > 10 µM | – | 0.7 µM | 1.1 µM | 1.4 µM | COc1ccc2[nH]cc(CCNc3nc(N[C@H]4CC[C@H](N)CC4)nc4c3ncn4C3CCCC3)c2c1 [Example 9, 2-[Trans-(4-aminocyclohexyl)amino]-6-[(3-(5-methoxyindolyl))-2-ethylamino]-9-cyclopentylpurine dihydrochloride] | – |
| 0.23 µM and 0.97 µM | 0.082 µM and 0.08 µM | 1.7 µM | 1.6 µM | 1.3 µM | 0.7 µM | 1 µM | 0.6 µM | 1.1 µM | 1.2 µM | 0.9 µM | 0.7 µM | 1.1 µM | 1.9 µM | 2.3 µM | 1.3 µM | – | 0.7 µM | N[C@H]1CC[C@H](Nc2nc(Nc3cccc(F)c3)c3ncn(C4CCCC4)c3n2)CC1 [Example 21, 2-[Trans-(4-aminocyclohexyl)amino]-6-(3-fluorophenylamino)-9-cyclopentylpurine dihydrochloride] | – |
